Experimental data: ChEMBL document CHEMBL4651402, “Screening of ~5500 FDA-approved drugs and clinical candidates for anti-SARS-CoV-2 activity” (2021)

System: SARS-CoV-2
Assay: microbe, parasite or virus in culture
Conditions: Severe acute respiratory syndrome coronavirus 2, Vero C1008, 48 h

| Structure (SMILES) | IC50 [µM] | IC50 (read-out: pIC50 (converted)) [µM] |
| --- | --- | --- |
| C[C@]12C=CC(=O)C=C1CC[C@@H]1[C@@H]2[C@@H](O)C[C@@]2(C)[C@H]1CC[C@]2(O)C(=O)CO [PREDNISOLONE] | > 20 | > 20 |
| CC(=O)[C@H]1CC[C@H]2[C@@H]3CC=C4C[C@@H](O)CC[C@]4(C)[C@H]3CC[C@]12C [PREGNENOLONE] | > 20 | > 20 |
| Cc1c2c(cn1C)NC(=O)CN=C2c1ccccc1 [PREMAZEPAM] | > 20 | > 20 |
| CC(C)NC[C@H](O)COc1ccc(O)cc1 [PRENALTEROL] | > 20 | > 20 |
| c1ccc(C(Cc2noc(CCN3CCCCC3)n2)c2ccccc2)cc1 [PRENOXDIAZINE] | > 20 | > 20 |
| Cc1cn2nc([C@@H]3CCCCN3C(=O)c3cc(Cl)ccc3NS(C)(=O)=O)cc2nc1N1CC[C@H](N)C1 [PRESATOVIR] | > 20 | > 20 |
| CCN1CCC(=C(c2ccccc2)c2ccccc2)C1 [PRIDEFINE] | > 20 | > 20 |
| OC(CCN1CCCCC1)(c1ccccc1)c1ccccc1 [PRIDINOL] | > 20 | > 20 |
| CCCN1CCC(c2cccc(S(C)(=O)=O)c2)CC1 [PRIDOPIDINE] | > 20 | > 20 |
| CC(C)(C)c1cc(C(=O)c2cccs2)cc(C(C)(C)C)c1O [PRIFELONE] | > 20 | > 20 |
| CCCNC(C)C(=O)Nc1ccccc1C (stereo unspecified) [PRILOCAINE] | > 20 | > 20 |
| COc1cc(NC(C)CCCN)c2ncccc2c1 (stereo unspecified) [PRIMAQUINE] | > 20 | > 20 |
| Cc1ccccc1OCC(O)CNCCn1cc(C)c(=O)[nH]c1=O (stereo unspecified) [PRIMIDOLOL] | > 20 | > 20 |
| CCC1(c2ccccc2)C(=O)NCNC1=O [PRIMIDONE] | > 20 | > 20 |
| CN1Cc2cc(C3=NNC(=O)CC3)ccc2NC1=O [PRINOXODAN] | > 20 | > 20 |
| CCCN(CCC)S(=O)(=O)c1ccc(C(=O)O)cc1 [PROBENECID] | > 20 | > 20 |
| CCCc1c2oc(C(=O)O)cc(=O)c2cc2c(=O)cc(C(=O)O)oc12 [PROBICROMIL] | > 20 | > 20 |
| CC(C)(Sc1cc(C(C)(C)C)c(O)c(C(C)(C)C)c1)Sc1cc(C(C)(C)C)c(O)c(C(C)(C)C)c1 [PROBUCOL] | > 20 | > 20 |
| CCN(CC)CCNC(=O)c1ccc(N)cc1 [PROCAINAMIDE] | > 20 | > 20 |
| CCN(CC)CCOC(=O)c1ccc(N)cc1 [PROCAINE] | > 20 | > 20 |
| CNNCc1ccc(C(=O)NC(C)C)cc1 [PROCARBAZINE] | > 20 | > 20 |
| CCC(NC(C)C)C(O)c1ccc(O)c2[nH]c(=O)ccc12 (stereo unspecified) [PROCATEROL] | > 20 | > 20 |
| CN1CCN(CCCN2c3ccccc3Sc3ccc(Cl)cc32)CC1 [PROCHLORPERAZINE] | > 20 | > 20 |

| Structure (SMILES) | IC50 [µM] | IC50 (read-out: pIC50 (converted)) [µM] |
| --- | --- | --- |
| OC(c1ccc(Cl)cc1)(c1ccc(Cl)cc1)C1CC1 [PROCLONOL] | > 20 | > 20 |
| O=C(O)CCc1nc2ccccc2[nH]1 [PROCODAZOLE] | > 20 | > 20 |
| OC(CCN1CCCC1)(c1ccccc1)C1CCCCC1 (stereo unspecified) [PROCYCLIDINE] | > 20 | > 20 |
| CCC(=O)OC1(c2ccccc2)CCN(C)C1C (stereo unspecified) [PRODILIDINE] | > 20 | > 20 |
| CCCC1(c2cccc(O)c2)CCN(C)C1 (stereo unspecified) [PROFADOL] | > 20 | > 20 |
| CC(=O)[C@H]1CC[C@H]2[C@@H]3CCC4=CC(=O)CC[C@]4(C)[C@H]3CC[C@]12C [PROGESTERONE] | > 20 | > 20 |
| CCCN(CCC)C(=O)C(CCC(=O)O)NC(=O)c1ccccc1 (stereo unspecified) [PROGLUMIDE] | > 20 | > 20 |
| CC(C)NC(=N)NC(=N)Nc1ccc(Cl)cc1 [PROGUANIL] | > 20 | > 20 |
| O=C(O)[C@@H]1CCCN1 [PROLINE] | > 20 | > 20 |
| CC(C)NCC(O)c1ccc2ccccc2c1 (stereo unspecified) [PRONETALOL] | > 20 | > 20 |
| CCCNCC(O)COc1ccccc1C(=O)CCc1ccccc1 (stereo unspecified) [PROPAFENONE] | > 20 | > 20 |
| CCCOC(=O)Cc1ccc(OCC(=O)N(CC)CC)c(OC)c1 [PROPANIDID] | > 20 | > 20 |
| CC(C)[N+](C)(CCOC(=O)C1c2ccccc2Oc2ccccc21)C(C)C [PROPANTHELINE] | > 20 | > 20 |
| CCCOc1ccc(C(=O)OCCN(CC)CC)cc1N [PROPARACAINE] | > 20 | > 20 |
| CCCn1cnc2c1c(=O)n(CCCCC(C)=O)c(=O)n2C [PROPENTOFYLLINE] | > 20 | > 20 |
| CC(C)OC(=O)C1(c2ccccc2)CCN(C)CC1 [PROPERIDINE] | > 20 | > 20 |
| CCC(=O)O [PROPIONIC ACID] | > 20 | > 20 |
| CC(C)c1cccc(C(C)C)c1O [PROPOFOL] | > 20 | > 20 |
| CCCOc1cc(N)ccc1C(=O)OCCN(CC)CC [PROPOXYCAINE] | > 20 | > 20 |
| CCC(=O)O[C@](Cc1ccccc1)(c1ccccc1)[C@H](C)CN(C)C [PROPOXYPHENE] | > 20 | > 20 |
| CC(O)CO (stereo unspecified) [PROPYLENE GLYCOL] | > 20 | > 20 |
| CCCOC(=O)c1ccc(O)cc1 [PROPYLPARABEN] | > 20 | > 20 |
| Cc1c(C(C)C)c(=O)n(-c2ccccc2)n1C [PROPYPHENAZONE] | > 20 | > 20 |

| Structure (SMILES) | IC50 [µM] | IC50 (read-out: pIC50 (converted)) [µM] |
| --- | --- | --- |
| Cc1ccc2c(-c3ccccc3)nc(=O)n(C(C)C)c2c1 [PROQUAZONE] | > 20 | > 20 |
| CCCc1cc(C(N)=S)ccn1 [PROTIONAMIDE] | > 20 | > 20 |
| COc1ccc2c(c1)Sc1ccc(C(C)C(=O)O)cc1N2C (stereo unspecified) [PROTIZINIC ACID] | > 20 | > 20 |
| CC(O)Cn1cnc2c1c(=O)n(C)c(=O)n2C (stereo unspecified) [PROXYPHYLLINE] | > 20 | > 20 |
| c1ccc(C(CCN2CCCCCC2)c2ccccc2)cc1 [PROZAPINE] | > 20 | > 20 |
| Cc1oc(=O)oc1CN1CCN(c2cc3c(cc2F)c(=O)c(C(=O)O)c2n3C(C)S2)CC1 (stereo unspecified) [PRULIFLOXACIN] | > 20 | > 20 |
| N#Cc1cc(CN2CCC(Nc3ncnc4sc(Cl)cc34)CC2)ccc1F [PRX-08066 FREE BASE] | > 20 | > 20 |
| CN[C@@H](C)[C@@H](O)c1ccccc1 [PSEUDOEPHEDRINE] | > 20 | > 20 |
| COc1cc(/C=C/c2ccc(O)cc2)cc(OC)c1 [PTEROSTILBENE] | > 20 | > 20 |
| C/C=C(\C)C(=O)O[C@@H]1c2c(ccc3ccc(=O)oc23)OC(C)(C)[C@@H]1OC(C)=O [PTERYXIN] | > 20 | > 20 |
| COC(=O)Nc1cccc(C)c1CNc1cccn2c(C)c(C)nc12 [PUMAPRAZOLE] | > 20 | > 20 |
| O=C(N[C@H]1CN2CCC1CC2)c1c[nH]c2ccsc2c1=O [PUMOSETRAG] | > 20 | > 20 |
| NCCCCN [PUTRESCINE] | > 20 | > 20 |
| CCC(C)SSc1ncc[nH]1 (stereo unspecified) [PX-12] | > 20 | > 20 |
| c1ccc2c(c1)Sc1ccccc1N2CCN1CCCC1 [PYRATHIAZINE] | > 20 | > 20 |
| NC(=O)c1cnccn1 [PYRAZINAMIDE] | > 20 | > 20 |
| NC(=O)c1[nH]nc([C@@H]2O[C@H](CO)[C@@H](O)[C@H]2O)c1O [PYRAZOFURIN] | > 20 | > 20 |
| CC(C)(C)c1ccc(CSc2cnn(C(C)(C)C)c(=O)c2Cl)cc1 [PYRIDABEN] | > 20 | > 20 |
| CN(C)C(=O)Oc1ccc[n+](C)c1 [PYRIDOSTIGMINE] | > 20 | > 20 |
| Cc1ncc(COP(=O)(O)O)c(C=O)c1O [PYRIDOXAL PHOSPHATE ANHYDROUS] | > 20 | > 20 |
| Cc1ncc(CO)c(C=O)c1O [PYRIDOXAL] | > 20 | > 20 |
| Cc1ncc(CO)c(CN)c1O [PYRIDOXAMINE] | > 20 | > 20 |
